Experimental data reported in patent US9708312B2, “Dihydropyrimidinoisoquinolinones and pharmaceutical compositions thereof for the treatment of inflammatory disorders (GPR84 antagonists)” (GALAPAGOS NV, priority 2012, dated 2017).

The molecules below were run against T1, GPR84 (Homo sapiens, UniProt Q9NQS5) (assay: GPR84 [35S]GTPγS binding assay, HEPES buffer). Conditions: 3,3′ di indolylmethane at EC80, membranes from stable cell line over expressing GPR84.
T1 construct: expressed in transfected cells
Assay type: biochemical
Protocol: 1.1. Cell Based Assay: GTp-γ S Binding Assay.
The following assay can be used for determination of GPR84 activation.
The assay is performed in a 96 well plate where the following reagents are added. […] In a last step, 30 μL of a mixture consisting of membranes-GTPγS-SpA beads is added [mixture consists of 20 μg/well membranes derived from stable cell line over expressing GPR84 (membranes are pre-incubated with 0.1 μM GDP for 15 min at 4° C.), 0.1 nM [^35S]GTPγS (Perkin Elmer, NEG030) and 0.5 mg/well PVT-WGA SpA beads (Perkin Elmer, RPNQ0001)]. All components are diluted in assay buffer containing 20 mM HEPES pH 7.4; 5 mM MgCl2; 250 mM NaCl; 0.05% BSA; 75 ug/mL saponin Reactions are incubated for 90 min at room temperature followed by centrifugation at 2000 rpm during 15 min. Plates are read on a Topcount reader (Perkin Elmer) immediately after centrifugation (readout time, 1 min/well).

T1 sequence (Q9NQS5 whole entry): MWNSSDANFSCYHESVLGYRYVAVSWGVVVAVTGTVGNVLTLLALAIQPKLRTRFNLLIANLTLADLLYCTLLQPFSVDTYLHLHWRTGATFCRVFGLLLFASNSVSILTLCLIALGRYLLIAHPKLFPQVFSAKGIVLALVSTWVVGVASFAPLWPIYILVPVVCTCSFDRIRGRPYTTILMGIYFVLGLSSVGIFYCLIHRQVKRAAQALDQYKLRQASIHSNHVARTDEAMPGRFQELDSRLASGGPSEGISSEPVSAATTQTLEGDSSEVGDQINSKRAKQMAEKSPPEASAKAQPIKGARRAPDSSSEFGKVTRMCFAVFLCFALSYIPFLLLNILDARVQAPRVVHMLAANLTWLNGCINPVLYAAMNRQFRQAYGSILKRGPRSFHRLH

Compared with CC(O)(C#Cc1ccc2c(c1)CCn1c-2cc(OCC2COc3ncccc3O2)nc1=O)c1ccccc1 (stereo not drawn) [compound 187, 2-(2,3-Dihydro-[1,4]dioxino[2,3-b]pyridin-2-ylmethoxy)-9-(3-hydroxy-3-phenyl-but-1-ynyl)-6,7-dihydro-pyrimido[6,1-a]isoquinolin-4-one], CN(CC#Cc1ccc2c(c1)CCn1c-2cc(OCC2COc3ncccc3O2)nc1=O)Cc1ccccc1 (stereo not drawn) [compound 173, 9-[3-(benzyl-methyl-amino)-prop-1-ynyl]-2-(2,3-dihydro-[1,4]dioxino[2,3-b]pyridin-2-ylmethoxy)-6,7-dihydro-pyrimido[6,1-a]isoquinolin-4-one] is higher in IC50: 0.01 to 100 nM for the first, 100 to 500 nM for the second. The first is the more potent here.

O=c1nc(OCC2CCCO2)cc2n1CCc1cc(OCCOc3ccc(Cl)cc3)ccc1-2 (stereo not drawn) [compound 45, 9-[2-(4-chloro-phenoxy)-ethoxy]-2-(tetrahydro-furan-2-ylmethoxy)-6,7-dihydro-pyrimido[6,1-a]isoquinolin-4-one] and COc1cccc(OCCOc2ccc3c(c2)CCn2c-3cc(OCC3CCCO3)nc2=O)c1 (stereo not drawn) [compound 41, 9-[2-(3-methoxy-phenoxy)-ethoxy]-2-(tetrahydro-furan-2-ylmethoxy)-6,7-dihydro-pyrimido[6,1-a]isoquinolin-4-one] fall in the same range of IC50: 0.01 to 100 nM for the first, 0.01 to 100 nM for the second.

COC(=O)c1cccc(COc2ccc3c(c2)CCn2c-3cc(OCC3CCCO3)nc2=O)c1 (stereo not drawn) [compound 27, 3-[4-oxo-2-(tetrahydro-furan-2-ylmethoxy)-6,7-dihydro-4H-pyrimido[6,1-a]isoquinolin-9-yloxymethyl]-benzoic acid methyl ester] and Cc1ccc(COc2ccc3c(c2)CCn2c-3cc(OCC3CCCO3)nc2=O)cc1 (stereo not drawn) [compound 35, 9-(4-methyl-benzyloxy)-2-(tetrahydro-furan-2-ylmethoxy)-6,7-dihydro-pyrimido[6,1-a]isoquinolin-4-one] fall in the same range of IC50: 0.01 to 100 nM for the first, 0.01 to 100 nM for the second.

First: O=c1nc(OCC2COc3ccccc3O2)cc2n1CCc1cc(OCc3ncco3)ccc1-2 (stereo not drawn) [compound 73, 2-(2,3-dihydro-benzo[1,4]dioxin-2-ylmethoxy)-9-(oxazol-2-ylmethoxy)-6,7-dihydro-pyrimido[6,1-a]isoquinolin-4-one]
Second: CN(C)CCCOc1ccc2c(c1)CCn1c-2cc(OCC2COc3ccccc3O2)nc1=O (stereo not drawn) [compound 82, 2-(2,3-Dihydro-benzo[1,4]dioxin-2-ylmethoxy)-9-(3-dimethylamino-propoxy)-6,7-dihydro-pyrimido[6,1-a]isoquinolin-4-one]
The IC50 of the first is lower: 100 to 500 nM for the first, 500 to 1000 nM for the second. The first is the more potent here.

COc1ncccc1-c1ccc2c(c1)CCn1c-2cc(OCC2COc3ncccc3O2)nc1=O (stereo not drawn) [compound 145, 2-(2,3-dihydro-[1,4]dioxino[2,3-b]pyridin-2-ylmethoxy)-9-(2-methoxy-pyridin-3-yl)-6,7-dihydro-pyrimido[6,1-a]isoquinolin-4-one] and COc1nccc(-c2ccc3c(c2)CCn2c-3cc(OCC3COc4ncccc4O3)nc2=O)c1Cl (stereo not drawn) [compound 160, 9-(3-chloro-2-methoxy-pyridin-4-yl)-2-(2,3-dihydro-[1,4]dioxino[2,3-b]pyridin-2-ylmethoxy)-6,7-dihydro-pyrimido[6,1-a]isoquinolin-4-one] fall in the same range of IC50: 0.01 to 100 nM for the first, 0.01 to 100 nM for the second.

O=C(NC1CCOCC1)c1ccc2c(c1)CCn1c-2cc(OCC2COc3ncccc3O2)nc1=O (stereo not drawn) [compound 195, 2-(2,3-dihydro-[1,4]dioxino[2,3-b]pyridin-2-ylmethoxy)-4-oxo-6,7-dihydro-4H-pyrimido[6,1-a]isoquinoline-9-carboxylic acid (tetrahydro-pyran-4-yl)-amide] and N#Cc1ccc2c(c1)CCn1c-2cc(OCC2COc3ncccc3O2)nc1=O (stereo not drawn) [compound 152, 2-(2,3-dihydro-[1,4]dioxino[2,3-b]pyridin-2-ylmethoxy)-4-oxo-6,7-dihydro-4H-pyrimido[6,1-a]isoquinoline-9-carbonitrile] fall in the same range of IC50: 100 to 500 nM for the first, 100 to 500 nM for the second.

First: O=c1nc(OCC2CCCO2)cc2n1CCc1cc(OCc3noc(-c4ccccc4)n3)ccc1-2 (stereo not drawn) [compound 88, 9-(5-phenyl-[1,2,4]oxadiazol-3-ylmethoxy)-2-(tetrahydro-furan-2-ylmethoxy)-6,7-dihydro-pyrimido[6,1-a]isoquinolin-4-one]
Second: O=c1nc(OCC2CCCO2)cc2n1CCc1cc(OCc3ccccc3Cl)ccc1-2 (stereo not drawn) [compound 23, 9-(2-chloro-benzyloxy)-2-(tetrahydro-furan-2-ylmethoxy)-6,7-dihydro-pyrimido[6,1-a]isoquinolin-4-one]
The IC50 of the first is lower: 0.01 to 100 nM for the first, 100 to 500 nM for the second.

O=c1nc(OCC2COc3ccccc3O2)cc2n1CCc1cc(OCC3CCCO3)ccc1-2 (stereo not drawn) [compound 54, 2-(2,3-dihydro-benzo[1,4]dioxin-2-ylmethoxy)-9-(tetrahydro-furan-2-ylmethoxy)-6,7-dihydro-pyrimido[6,1-a]isoquinolin-4-one] and O=c1nc(OCC2COc3ccccc3O2)cc2n1CCc1cc(OCc3nnnn3C3CC3)ccc1-2 (stereo not drawn) [compound 75, 9-(1-cyclopropyl-1H-tetrazol-5-ylmethoxy)-2-(2,3-dihydro-benzo[1,4]dioxin-2-ylmethoxy)-6,7-dihydro-pyrimido[6,1-a]isoquinolin-4-one] fall in the same range of IC50: 0.01 to 100 nM for the first, 0.01 to 100 nM for the second.

First: COc1ccc2c(c1)CCn1c-2cc(OCC2Cc3ccccc3O2)nc1=O (stereo not drawn) [compound 5, 2-(2,3-dihydro-benzofuran-2-ylmethoxy)-9-methoxy-6,7-dihydro-pyrimido[6,1-a]isoquinolin-4-one]
Second: CC(C)(Oc1ccc2c(c1)CCn1c-2cc(OCC2COc3ccccc3O2)nc1=O)C(N)=O (stereo not drawn) [compound 49, 2-[2-(2,3-dihydro-benzo[1,4]dioxin-2-ylmethoxy)-4-oxo-6,7-dihydro-4H-pyrimido[6,1-a]isoquinolin-9-yloxy]-2-methyl-propionamide]
The IC50 of the first is higher: 500 to 1000 nM for the first, 0.01 to 100 nM for the second. The second is the more potent here.

CCCn1nnnc1COc1ccc2c(c1)CCn1c-2cc(OCC2COc3ccccc3O2)nc1=O (stereo not drawn) [compound 69, 2-(2,3-dihydro-benzo[1,4]dioxin-2-ylmethoxy)-9-(1-propyl-1H-tetrazol-5-ylmethoxy)-6,7-dihydro-pyrimido[6,1-a]isoquinolin-4-one] and CCCCn1nnnc1COc1ccc2c(c1)CCn1c-2cc(OCC2COc3ccccc3O2)nc1=O (stereo not drawn) [compound 70, 9-(1-butyl-1H-tetrazol-5-ylmethoxy)-2-(2,3-dihydro-benzo[1,4]dioxin-2-ylmethoxy)-6,7-dihydro-pyrimido[6,1-a]isoquinolin-4-one] fall in the same range of IC50: 0.01 to 100 nM for the first, 0.01 to 100 nM for the second.

COc1ccc(OC)c(-c2ccc3c(c2)CCn2c-3cc(OCC3COc4ncccc4O3)nc2=O)c1 (stereo not drawn) [compound 168, 2-(2,3-dihydro-[1,4]dioxino[2,3-b]pyridin-2-ylmethoxy)-9-(2,5-dimethoxy-phenyl)-6,7-dihydro-pyrimido[6,1-a]isoquinolin-4-one] and N#Cc1cccc(-c2ccc3c(c2)CCn2c-3cc(OCC3COc4ncccc4O3)nc2=O)c1 (stereo not drawn) [compound 98, 3-[2-(2,3-dihydro-[1,4]dioxino[2,3-b]pyridin-2-ylmethoxy)-4-oxo-6,7-dihydro-4H-pyrimido[6,1-a]isoquinolin-9-yl]-benzonitrile] fall in the same range of IC50: 0.01 to 100 nM for the first, 0.01 to 100 nM for the second.

O=C(COc1ccc2c(c1)CCn1c-2cc(OCC2COc3ccccc3O2)nc1=O)Nc1ccccc1 (stereo not drawn) [compound 68, 2-[2-(2,3-dihydro-benzo[1,4]dioxin-2-ylmethoxy)-4-oxo-6,7-dihydro-4H-pyrimido[6,1-a]isoquinolin-9-yloxy]-N-phenyl-acetamide] and CC(C)(C)OC(=O)COc1ccc2c(c1)CCn1c-2cc(OCC2COc3ccccc3O2)nc1=O (stereo not drawn) [compound 29, [2-(2,3-dihydro-benzo[1,4]dioxin-2-ylmethoxy)-4-oxo-6,7-dihydro-4H-pyrimido[6,1-a]isoquinolin-9-yloxy]-acetic acid tert-butyl ester] fall in the same range of IC50: 0.01 to 100 nM for the first, 0.01 to 100 nM for the second.

O=c1nc(OCC2CCCO2)cc2n1CCc1cc(OCC3CCCO3)ccc1-2 (stereo not drawn) [compound 52, 2,9-bis-(tetrahydro-furan-2-ylmethoxy)-6,7-dihydro-pyrimido[6,1-a]isoquinolin-4-one] and O=c1nc(OCC2CCCO2)cc2n1CCc1cc(OCc3ncco3)ccc1-2 (stereo not drawn) [compound 65, 9-(oxazol-2-ylmethoxy)-2-(tetrahydro-furan-2-ylmethoxy)-6,7-dihydro-pyrimido[6,1-a]isoquinolin-4-one] fall in the same range of IC50: 500 to 1000 nM for the first, 500 to 1000 nM for the second.

N#Cc1ccc(COc2ccc3c(c2)CCn2c-3cc(OCC3CCCO3)nc2=O)cc1 (stereo not drawn) [compound 17, 4-[4-oxo-2-(tetrahydro-furan-2-ylmethoxy)-6,7-dihydro-4H-pyrimido[6,1-a]isoquinolin-9-yloxymethyl]-benzonitrile] and CCOC(=O)c1ccc(COc2ccc3c(c2)CCn2c-3cc(OCC3COc4ccccc4O3)nc2=O)o1 (stereo not drawn) [compound 85, 5-[2-(2,3-dihydro-benzo[1,4]dioxin-2-ylmethoxy)-4-oxo-6,7-dihydro-4H-pyrimido[6,1-a]isoquinolin-9-yloxymethyl]-furan-2-carboxylic acid ethyl ester] fall in the same range of IC50: 0.01 to 100 nM for the first, 0.01 to 100 nM for the second.

N#Cc1ccc(-c2ccc3c(c2)CCn2c-3cc(OCC3COc4ncccc4O3)nc2=O)cn1 (stereo not drawn) [compound 162, 5-[2-(2,3-dihydro-[1,4]dioxino[2,3-b]pyridin-2-ylmethoxy)-4-oxo-6,7-dihydro-pyrimido[6,1-a]isoquinolin-9-yl]-pyridine-2-carbonitrile] and Cc1nc(COc2ccc3c(c2)CCn2c-3cc(OCC3COc4ncccc4O3)nc2=O)no1 (stereo not drawn) [compound 154, 2-(2,3-dihydro-[1,4]dioxino[2,3-b]pyridin-2-ylmethoxy)-9-(5-methyl-[1,2,4]oxadiazol-3-ylmethoxy)-6,7-dihydro-pyrimido[6,1-a]isoquinolin-4-one] fall in the same range of IC50: 0.01 to 100 nM for the first, 0.01 to 100 nM for the second.
